The target of one series is T1, ARK5(h) (Homo sapiens, UniProt O60285).
T1 construct: purchased Millipore KinaseProfiler
T1 sequence (O60285 1-661): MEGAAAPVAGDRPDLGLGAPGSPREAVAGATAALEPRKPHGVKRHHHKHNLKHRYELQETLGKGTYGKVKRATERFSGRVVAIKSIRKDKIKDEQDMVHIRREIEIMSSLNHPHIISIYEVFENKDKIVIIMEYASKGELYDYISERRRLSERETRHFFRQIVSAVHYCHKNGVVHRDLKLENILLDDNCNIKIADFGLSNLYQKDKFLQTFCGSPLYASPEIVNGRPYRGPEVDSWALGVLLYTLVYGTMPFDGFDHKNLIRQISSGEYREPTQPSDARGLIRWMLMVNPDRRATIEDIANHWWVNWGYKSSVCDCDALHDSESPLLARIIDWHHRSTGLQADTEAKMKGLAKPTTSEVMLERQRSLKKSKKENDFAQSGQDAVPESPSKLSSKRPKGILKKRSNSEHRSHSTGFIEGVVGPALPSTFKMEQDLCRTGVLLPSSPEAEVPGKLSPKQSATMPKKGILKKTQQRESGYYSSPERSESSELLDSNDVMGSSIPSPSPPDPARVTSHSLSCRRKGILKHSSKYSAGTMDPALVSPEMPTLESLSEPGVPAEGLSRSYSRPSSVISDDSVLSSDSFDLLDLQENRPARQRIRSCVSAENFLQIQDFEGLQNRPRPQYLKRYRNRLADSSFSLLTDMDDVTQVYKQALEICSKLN
Kind of series: Kinase panel. The format is biochemical.

Another series deals with T2, CHK2(I157T)(h) (Homo sapiens, UniProt O96017, I157T).
T2 construct: purchased Millipore KinaseProfiler
In words: Kinase panel. The format is biochemical.

In another series the target is T3, MST3(h) (Homo sapiens, UniProt Q9Y6E0).
T3 construct: purchased Millipore KinaseProfiler
Kind of series: Kinase panel. The format is biochemical.

For a further series, the target named is T4, PAK5(h) (Homo sapiens, UniProt Q9P286).
T4 construct: purchased Millipore KinaseProfiler
Kind of series: Kinase panel. The format is biochemical.

The target of another series is T5, PAK6(h) (Homo sapiens, UniProt Q9NQU5).
T5 construct: purchased Millipore KinaseProfiler
In words: Kinase panel. The format is biochemical.

The next series concerns the target T6, PKG1β(h) (Homo sapiens, UniProt Q13976).
T6 construct: purchased Millipore KinaseProfiler
T6 sequence (Q13976 1-686 isoform Q13976-2): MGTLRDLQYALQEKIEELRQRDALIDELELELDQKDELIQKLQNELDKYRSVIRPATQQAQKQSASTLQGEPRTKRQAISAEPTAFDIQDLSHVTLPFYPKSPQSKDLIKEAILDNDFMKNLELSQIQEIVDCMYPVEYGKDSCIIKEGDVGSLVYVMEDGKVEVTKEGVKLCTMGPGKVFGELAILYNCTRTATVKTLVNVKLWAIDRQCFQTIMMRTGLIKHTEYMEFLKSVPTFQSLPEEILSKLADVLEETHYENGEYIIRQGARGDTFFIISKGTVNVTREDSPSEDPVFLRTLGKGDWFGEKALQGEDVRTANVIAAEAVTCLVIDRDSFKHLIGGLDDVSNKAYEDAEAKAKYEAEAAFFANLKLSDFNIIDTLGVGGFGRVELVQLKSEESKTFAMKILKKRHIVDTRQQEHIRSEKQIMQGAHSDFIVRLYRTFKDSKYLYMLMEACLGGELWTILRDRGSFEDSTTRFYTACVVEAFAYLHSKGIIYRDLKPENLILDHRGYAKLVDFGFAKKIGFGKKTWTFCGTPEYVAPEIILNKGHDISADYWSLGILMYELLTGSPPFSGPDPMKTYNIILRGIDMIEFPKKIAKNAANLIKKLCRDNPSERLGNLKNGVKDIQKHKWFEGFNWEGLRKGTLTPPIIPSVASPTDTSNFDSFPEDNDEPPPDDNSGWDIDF
In words: Kinase panel. The format is biochemical.

A further series deals with T7, SGK(h) (Homo sapiens, UniProt O00141).
T7 construct: purchased Millipore KinaseProfiler
T7 sequence (O00141 1-431): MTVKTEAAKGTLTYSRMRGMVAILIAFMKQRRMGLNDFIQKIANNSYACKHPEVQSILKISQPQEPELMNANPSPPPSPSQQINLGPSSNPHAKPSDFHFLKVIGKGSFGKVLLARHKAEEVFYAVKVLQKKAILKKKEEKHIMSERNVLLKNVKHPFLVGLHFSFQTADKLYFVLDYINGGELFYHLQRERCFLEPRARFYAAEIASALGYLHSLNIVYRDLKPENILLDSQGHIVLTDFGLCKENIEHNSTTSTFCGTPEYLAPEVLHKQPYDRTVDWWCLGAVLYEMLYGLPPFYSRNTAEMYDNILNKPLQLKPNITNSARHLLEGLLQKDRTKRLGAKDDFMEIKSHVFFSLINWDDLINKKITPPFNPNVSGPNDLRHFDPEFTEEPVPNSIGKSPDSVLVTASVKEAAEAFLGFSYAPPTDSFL
Kind of series: Kinase panel. The format is biochemical.

Another series has as its target PKCγ (Homo sapiens, UniProt P05129). Kind of series: Kinase IC50 assay. The format is biochemical.
The target of the next series is PKCμ (Homo sapiens, UniProt Q15139). In words: Kinase IC50 assay. The format is biochemical.
Series [1] in a line: Plasma insulin after single oral dose. The format is in vivo, mouse. Here is the method: Blood glucose levels were determined from tail vein puncture in mice using a handheld glucometer. Plasma Insulin levels were using the Rat Ultrasensitive Insulin ELISA kit (Crystal Chem Inc).
The target of the next series is T8, SGK3(h) (Homo sapiens, UniProt Q96BR1).
T8 sequence (Q96BR1 1-496): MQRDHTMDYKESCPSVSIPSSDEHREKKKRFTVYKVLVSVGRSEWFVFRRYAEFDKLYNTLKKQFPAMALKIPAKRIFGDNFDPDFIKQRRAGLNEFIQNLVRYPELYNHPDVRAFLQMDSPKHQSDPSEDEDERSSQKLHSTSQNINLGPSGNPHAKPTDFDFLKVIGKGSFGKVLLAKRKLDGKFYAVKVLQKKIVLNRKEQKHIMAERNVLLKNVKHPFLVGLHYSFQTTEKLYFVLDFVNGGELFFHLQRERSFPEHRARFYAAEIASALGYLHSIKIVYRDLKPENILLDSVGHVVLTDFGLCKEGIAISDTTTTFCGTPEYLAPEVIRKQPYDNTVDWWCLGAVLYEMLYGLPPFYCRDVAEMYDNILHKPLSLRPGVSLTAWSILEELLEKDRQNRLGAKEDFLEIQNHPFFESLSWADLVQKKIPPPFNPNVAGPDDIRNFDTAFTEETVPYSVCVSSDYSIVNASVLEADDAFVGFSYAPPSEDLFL
Kind of series: Kinase panel.

Read-outs that look alike come from different tables or passages of the source. Where only a bound is given, the exact number is not on record here.

T5 sequence (Q9NQU5 whole entry): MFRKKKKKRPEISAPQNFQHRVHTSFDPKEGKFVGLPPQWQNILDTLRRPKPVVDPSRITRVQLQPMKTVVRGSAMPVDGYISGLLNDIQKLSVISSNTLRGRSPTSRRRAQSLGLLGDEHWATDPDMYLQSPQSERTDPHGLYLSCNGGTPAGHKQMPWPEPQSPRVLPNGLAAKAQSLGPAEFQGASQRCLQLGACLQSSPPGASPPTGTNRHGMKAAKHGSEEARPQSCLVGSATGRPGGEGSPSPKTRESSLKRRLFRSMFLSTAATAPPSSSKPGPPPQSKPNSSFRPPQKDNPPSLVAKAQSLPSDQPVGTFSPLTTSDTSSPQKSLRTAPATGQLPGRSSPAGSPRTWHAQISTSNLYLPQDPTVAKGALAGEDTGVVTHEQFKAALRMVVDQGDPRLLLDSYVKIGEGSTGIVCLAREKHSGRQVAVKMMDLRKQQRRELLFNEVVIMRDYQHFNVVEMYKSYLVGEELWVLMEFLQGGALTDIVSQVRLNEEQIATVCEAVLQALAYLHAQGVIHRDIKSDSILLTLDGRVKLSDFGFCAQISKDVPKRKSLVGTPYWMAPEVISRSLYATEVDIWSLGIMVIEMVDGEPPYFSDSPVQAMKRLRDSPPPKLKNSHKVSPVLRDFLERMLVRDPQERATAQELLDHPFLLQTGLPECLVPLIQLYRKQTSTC
T2 sequence (O96017 whole entry I157T): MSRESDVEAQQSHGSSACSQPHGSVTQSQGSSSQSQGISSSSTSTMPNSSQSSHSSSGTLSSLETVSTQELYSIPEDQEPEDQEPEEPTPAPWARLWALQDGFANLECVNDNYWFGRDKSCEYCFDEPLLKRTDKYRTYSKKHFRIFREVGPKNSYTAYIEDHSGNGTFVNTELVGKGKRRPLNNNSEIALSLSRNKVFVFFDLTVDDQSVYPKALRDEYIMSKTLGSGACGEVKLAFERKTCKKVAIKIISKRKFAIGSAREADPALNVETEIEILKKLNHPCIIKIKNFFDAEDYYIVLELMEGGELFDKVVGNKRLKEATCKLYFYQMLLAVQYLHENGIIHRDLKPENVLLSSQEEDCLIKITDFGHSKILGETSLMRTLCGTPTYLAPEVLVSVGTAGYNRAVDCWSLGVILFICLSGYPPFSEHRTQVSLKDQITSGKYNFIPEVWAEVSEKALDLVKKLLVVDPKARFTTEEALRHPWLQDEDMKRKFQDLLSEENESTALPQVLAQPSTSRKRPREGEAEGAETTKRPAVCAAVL
T3 sequence (Q9Y6E0 whole entry): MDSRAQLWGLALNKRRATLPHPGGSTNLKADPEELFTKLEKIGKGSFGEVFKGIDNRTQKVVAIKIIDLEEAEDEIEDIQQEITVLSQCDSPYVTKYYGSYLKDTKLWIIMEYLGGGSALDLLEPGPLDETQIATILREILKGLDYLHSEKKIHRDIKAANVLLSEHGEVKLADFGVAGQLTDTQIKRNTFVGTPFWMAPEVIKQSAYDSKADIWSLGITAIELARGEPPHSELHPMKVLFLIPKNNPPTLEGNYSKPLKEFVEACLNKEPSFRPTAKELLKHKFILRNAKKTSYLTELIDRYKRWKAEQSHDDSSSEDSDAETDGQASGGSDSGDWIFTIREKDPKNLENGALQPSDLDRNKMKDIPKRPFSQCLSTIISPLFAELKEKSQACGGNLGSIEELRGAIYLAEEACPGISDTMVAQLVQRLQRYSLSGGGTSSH
T4 sequence (Q9P286 whole entry): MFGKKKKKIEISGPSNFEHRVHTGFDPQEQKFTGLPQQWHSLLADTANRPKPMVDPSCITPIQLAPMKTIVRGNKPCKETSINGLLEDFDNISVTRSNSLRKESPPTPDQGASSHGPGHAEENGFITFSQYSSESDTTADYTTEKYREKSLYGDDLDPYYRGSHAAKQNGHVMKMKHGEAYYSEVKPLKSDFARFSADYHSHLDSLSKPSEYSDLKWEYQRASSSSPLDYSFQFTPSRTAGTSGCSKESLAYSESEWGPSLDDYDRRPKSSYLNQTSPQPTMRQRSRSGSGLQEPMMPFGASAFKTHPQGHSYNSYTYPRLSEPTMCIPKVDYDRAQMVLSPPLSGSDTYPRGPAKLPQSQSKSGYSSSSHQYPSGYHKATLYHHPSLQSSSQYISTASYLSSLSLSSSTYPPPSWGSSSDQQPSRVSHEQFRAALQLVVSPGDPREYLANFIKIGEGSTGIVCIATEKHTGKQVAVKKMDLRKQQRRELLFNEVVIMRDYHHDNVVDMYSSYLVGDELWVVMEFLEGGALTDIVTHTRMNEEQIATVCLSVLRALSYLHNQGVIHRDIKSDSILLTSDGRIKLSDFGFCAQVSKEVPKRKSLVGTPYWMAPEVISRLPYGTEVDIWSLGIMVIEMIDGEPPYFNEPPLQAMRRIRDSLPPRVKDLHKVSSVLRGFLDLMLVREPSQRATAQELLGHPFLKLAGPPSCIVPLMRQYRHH
PKCμ, sequence (Q15139 whole entry): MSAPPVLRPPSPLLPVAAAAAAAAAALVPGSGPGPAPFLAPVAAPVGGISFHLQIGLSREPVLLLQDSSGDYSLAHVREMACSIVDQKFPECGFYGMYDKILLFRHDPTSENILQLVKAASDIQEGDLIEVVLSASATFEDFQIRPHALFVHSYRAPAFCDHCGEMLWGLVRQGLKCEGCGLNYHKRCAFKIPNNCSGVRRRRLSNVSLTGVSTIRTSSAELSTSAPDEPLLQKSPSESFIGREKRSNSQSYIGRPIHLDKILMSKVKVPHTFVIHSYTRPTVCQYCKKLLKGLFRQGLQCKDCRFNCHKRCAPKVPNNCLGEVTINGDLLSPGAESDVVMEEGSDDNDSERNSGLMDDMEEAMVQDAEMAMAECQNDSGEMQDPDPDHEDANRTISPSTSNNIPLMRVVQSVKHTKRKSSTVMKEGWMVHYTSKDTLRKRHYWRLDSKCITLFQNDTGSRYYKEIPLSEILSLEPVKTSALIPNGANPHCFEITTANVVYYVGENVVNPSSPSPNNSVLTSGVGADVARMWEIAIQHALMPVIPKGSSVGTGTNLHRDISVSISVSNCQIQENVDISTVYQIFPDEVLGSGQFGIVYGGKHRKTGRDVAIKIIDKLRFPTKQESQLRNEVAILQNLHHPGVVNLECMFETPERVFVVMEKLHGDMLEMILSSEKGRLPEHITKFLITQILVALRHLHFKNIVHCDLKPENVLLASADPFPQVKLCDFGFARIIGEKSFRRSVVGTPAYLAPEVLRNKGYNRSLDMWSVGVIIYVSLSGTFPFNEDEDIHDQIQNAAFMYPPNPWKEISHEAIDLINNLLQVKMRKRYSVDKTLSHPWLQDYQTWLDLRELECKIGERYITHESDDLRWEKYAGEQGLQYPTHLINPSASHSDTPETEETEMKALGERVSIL

`Cn1ncc(Cl)c1-c1cc(C(=O)N[C@H](CN)Cc2ccc(F)c(F)c2)oc1Cl` [GSK2141795]: the inhibition at 0.5 µM is -5% on ARK5(h) (0.5 µM, read-out: % Inhibition); 55% at CHK2(I157T)(h) (0.5 µM, read-out: % Inhibition); 10% on MST3(h) (0.5 µM, read-out: % Inhibition); 0% on PAK5(h) (0.5 µM, read-out: % Inhibition); 11% at PAK6(h) (0.5 µM, read-out: % Inhibition); 101% at PKG1β(h) (0.5 µM, read-out: % Inhibition). The inhibition at 0.5 µM on SGK(h) (0.5 µM, read-out: % Inhibition) is 47%; against SGK3(h) it was 18%. Moreover, the inhibition at 10 µM at ARK5(h) (10 µM, read-out: % Inhibition) was determined as 18%; at CHK2(I157T)(h) (10 µM, read-out: % Inhibition) it was 88%; on MST3(h) (10 µM, read-out: % Inhibition), 63%; on PAK5(h) (10 µM, read-out: % Inhibition) it was 40%; on PAK6(h) (10 µM, read-out: % Inhibition), 64%; on PKG1β(h) (10 µM, read-out: % Inhibition), 100%. Also, the inhibition at 10 µM on SGK(h) (10 µM, read-out: % Inhibition) was found to be 90%; on SGK3(h), 84%. Further, the IC50 at PKCγ was 200 nM; against PKCμ, 690 nM. Further, the “time for insulin to return to normal” value in series [1] (single 30 mg/kg dose) is not above 8 h. The same compound returned a plasma insulin in series [1] (single 30 mg/kg dose, concomitant with glucose at 2 h) of 188 ng/mL.
On to `Cn1ncc(Cl)c1-c1cc(C(=O)N[C@H](CN)Cc2cccc(F)c2)sc1Cl` [GSK2110183], for which the inhibition at 0.5 µM against ARK5(h) was -6%; at CHK2(I157T)(h), -4%; against MST3(h), 14%; at PAK5(h), 2%; on PAK6(h), 13%; at PKG1β(h) it was 101%. In addition, the results for the inhibition at 0.5 µM against SGK(h) and against SGK3(h) were 36% and 7%, respectively. Besides, the inhibition at 10 µM at ARK5(h) was 9%; at CHK2(I157T)(h), 0%; at MST3(h), 50%; against PAK5(h) it was 49%; on PAK6(h) it was 73%; against PKG1β(h), 101%. Also, the figures for the inhibition at 10 µM against SGK(h) and against SGK3(h) were 87% and 76%, respectively. Moreover, the IC50 against PKCγ and against PKCμ was more than 1000 nM in each case. In series [1] (100 mg/kg single oral dose), the “time for insulin to return to baseline” value was not above 8 h. In series [1] (100 mg/kg single oral dose, 4 h post dosing), this compound had an insulin level of 105.6 ng/mL.
